Reference: PMC12741294, “Phenazine 5,10-dioxide analogues as potential therapeutics in AML: Efficacy on patient-derived blasts, in zebrafish larvae xenografts and synergy with venetoclax” (Translational Oncology, 2025)
Like-named read-outs stand apart in the source and are kept apart here.

Assays:
[1] = system: AML patient blasts; experiment: Cell death of patient-derived AML blasts, Annexin V/propidium iodide flow cytometry, 24 h; assay type: cell-based, human; settings: compared with Cpd 3, 6, 9
From the text: Blasts from 61 non-selected patients were used in this study. Supplementary Table 1 presents the patient information, classification, and genetic aberration of the blasts. Peripheral blood mononuclear cells (PBMC) from healthy volunteers were obtained from freshly drawn peripheral blood from the Department of Immunology and Transfusion Medicine, Haukeland University Hospital, Bergen, Norway. AML blasts and PBMCs were isolated by density gradient separation of peripheral blood. The patient samples contained at least 95 % leukemic blasts after isolation. Bone marrow (BM) aspirate from a healthy donor was kindly provided by Professor BT Gjertsen, Dept. Clinical Science, University of Bergen (REK Vest 2012/2247). The patient blasts were cultured in StemSpan medium supplemented with SCF, Flt-3 ligand, and G-CSF, each at a final concentration of 20 ng/mL [22, 23], treated with phenazine 5,10-dioxides or daunorubicin (DNR) for 24 h before cell death was assessed by flow-cytometric analyses as described previously. Viable cells were defined as Annexin V/propidium iodide double negative cells.

[2] = system: MOLM-13; experiment: WST-1 metabolic activity and Bliss synergy with VTX, MOLM-13; assay type: cell-based, human; settings: for Mean Bliss interaction index (synergy score): Cpd 1 + VTX, all tested combinations
Protocol: (§1) To study the combination effect of phenazine 5,10-dioxides and VTX in AML cell lines, the cells were seeded in 96-well plates at 35,000 cells per well for 24-hour experiments or 20,000 cells per well for 48-hour experiments. Phenazine 5,10-dioxides and VTX, alone or in combination, were added in desired concentrations and cell plates incubated for 24 and 48 h. Thereafter, WST-1 was added to each well according to the manufacturer’s instructions and incubated for two hours. Absorbance was measured at 450 nm with 620 nm reference wavelength in a Wallac EnVision® 2130 multilabel plate reader, and this value was used to calculate relative metabolic activity compared to untreated cells. The cells were next fixed in 2 % formaldehyde with 0.01 mg/ml Hoechst 33,342 dye dissolved in PBS. Nuclear morphology was studied using a Nikon Diaphot 300 microscope to confirm that metabolic activity correlated with the presence of apoptotic nuclei (Supplementary Figure 1).
(§2) To calculate drug interaction, cell metabolic activity results were plotted into the interaction calculation software SynergyFinder+ [31], and Bliss independence score was used to calculate synergy.

[3] = system: zebrafish larvae; experiment: Toxicity in zebrafish larvae (viability, MTD, morphology); assay type: in vivo; settings: for Melanocyte abnormalities: wild-type AB-strain zebrafish larvae
Protocol: Phenazine 5,10-dioxides were dissolved in DMSO to give final concentrations between 5 and 20 mM and administered to the zebrafish larvae by diluting the stock solutions in the embryo medium. All compounds were tested up to a maximal concentration of 100 µM. […]
(§3) Zebrafish larvae heart rate was analysed as described by Førde et al.. To examine zebrafish larvae for morphological abnormalities, they were imaged using a Nikon Diaphot 300 inverted microscope fitted with a Nikon DS-Fi3 microscope camera and DS-L4 camera control unit.

[4] = system: AML cell lines; experiment: Preliminary combination of Cpd 1 with AML drugs; assay type: cell-based, human; settings: in combination with DNR, cytarabine and etoposide, data not shown
[5] = system: MOLM-13; design: method as in PMID 34124675; settings: ref [6]; cited from earlier work
[6] = system: MOLM-13; experiment: Cytotoxicity towards MOLM-13 cells (EC50); assay type: cell-based, human; settings: no reference mark in Table 3
Protocol: Table 3 Toxicity of phenazine 5,10-dioxides in zebrafish larvae. Maximum tolerated doses and observed morphological alterations in zebrafish larvae caused by phenazine 5,10-dioxides dissolved in embryo medium for 48 h. Cpd: compound. MTD: maximum tolerated dose. a: EC50 values from, –: not observed. | column: MOLM-13 EC50 (µM)

[7] = design: method as in PMID 38778732; settings: patients receiving 400 mg VTX as a single dosage; ref [43]; cited from earlier work
[8] = system: xenograft MOLM-13 cells in zebrafish larvae; experiment: Tumour burden of xenograft MOLM-13 cells in zebrafish larvae; assay type: in vivo; settings: VTX 4 nL 50 µM intravenous injection; 24 h; p < 0.001
Protocol: Prior to transplantation into zebrafish larvae, MOLM-13 cells were stained with the fluorescent marker CellTracker™ Deep Red. The cell suspension was centrifuged at 300 relative centrifugal force (RCF) for 5 min, and the medium removed. Thereafter, the cells were resuspended in serum-free RPMI-1640 medium containing 1.5 µM CellTracker™ Deep Red and incubated for 30 min at 37 °C. Excess dye was removed by centrifugation for five minutes at 300 RCF, removal of the medium and the cells were resuspended in fresh RPMI-medium to a final concentration of 10 million cells/mL. Intravenous injection of MOLM-13 cells into zebrafish larvae was performed as described in Førde et al.. The zebrafish larvae xenografts were incubated at 31.5 °C.
For quantification of tumour burden in zebrafish larvae a Nikon Ti-E inverted microscope fitted with an Andor Dragonfly 505 spinning disk confocal unit and iXon 888 Life EMCCD camera setup was used. […] The zebrafish larvae were scored based on the number of cells successfully injected and divided into treatment or control groups. […]
The Fiji macro described in [30] was used to determine MOLM-13 cancer cell burden in zebrafish larvae. […] After defining the boundary of the larva and segmentation from the background, the cells are segmented so that individual cells can be quantified (both size and number). […]

[9] = ref [29]; cited from earlier work
[10] = system: OCI-AML3; experiment: WST-1 metabolic activity and Bliss synergy with VTX, OCI-AML3; assay type: cell-based, human; settings: VTX alone; 24 h
Protocol: as §1, §2

[11] = system: zebrafish larvae; experiment: Zebrafish larvae heart rate; assay type: in vivo; settings: intravenously injected, 4 nL injection, 100 µM; 24 and 48 h
Protocol: as §3

[12] = system: AML patients; design: method as in PMID 32786187; settings: ref [14]; cited from earlier work
[13] = dissolved in embryo medium for 48 h
[14] = dissolved in embryo medium for 48 h, concentration from which observed

**Q.** Which “Potency towards the patient blasts” value [1] does the source give for `[O-][n+]1c2cccc(O)c2[n+]([O-])c2cccc(O)c21` [Cpd 1, 1,6-dihydroxyphenazine 5,10-dioxide] here?
**A.** lowest potency

**Q.** And the “Mean Bliss interaction index (synergy score)” value ([2]; 24 h)?
**A.** 15.56

**Q.** And the “Mean Bliss interaction index (synergy score)” value ([2]; 48 h)?
**A.** 10.90

**Q.** What about the “Lethality to zebrafish larvae” value ([3]; 100 µM (highest concentration tested), 48 h) of the same compound?
**A.** not lethal

**Q.** What about the “Viability of zebrafish larvae (Fig. 2A annotation)” value ([3]; 48 h of exposure, up to 100 µM) of the same compound?
**A.** Non-toxic

**Q.** And the “MTD (maximum tolerated dose)” value [3, 13]?
**A.** >100 µM

**Q.** What about the Melanocyte abnormalities [3] of the same compound?
**A.** not observed

**Q.** What about the Drug interaction [4] of the same compound?
**A.** additive effects

**Q.** And the EC50 [5]?
**A.** 2000 ± 100 nM

**Q.** Which results are given for `COc1cccc2c1[n+]([O-])c1cccc(O)c1[n+]2[O-]` [Cpd 2, Myxin]?
**A.** Only concentration that did not cause lethality ([3]; 48 h exposure): 5 µM; MTD (maximum tolerated dose) [3, 13]: 5 µM; Pigmentation alterations [3, 14]: From 10 µM; Concentration killing zebrafish larvae after six hours ([3]; in embryo medium, data not shown): 30000 nM; Melanocyte abnormalities [3]: caused melanocyte abnormalities; EC50 [5]: 1400 ± 300 nM

**Q.** For `COc1cccc2c1[n+]([O-])c1ccccc1[n+]2[O-]` [Cpd 10], which “MTD (maximum tolerated dose)” value [3, 13] is on record?
**A.** <10 µM

**Q.** And the Muscle fibre alterations [3, 14]?
**A.** From 10 µM

**Q.** And the Pigmentation alterations [3, 14]?
**A.** From 10 µM

**Q.** And the Melanocyte abnormalities [3]?
**A.** caused melanocyte abnormalities

**Q.** And the EC50 [6]?
**A.** 1400 ± 100 nM

**Q.** Which Cmax [7] does the source give for `CC1(C)CCC(CN2CCN(c3ccc(C(=O)NS(=O)(=O)c4ccc(NCC5CCOCC5)c([N+](=O)[O-])c4)c(Oc4cnc5[nH]ccc5c4)c3)CC2)=C(c2ccc(Cl)cc2)C1` [VTX, venetoclax] here?
**A.** ~2500 nM

**Q.** And the Relative metabolic activity ([2]; 6 nM VTX alone, 48 h)?
**A.** 59%

**Q.** And the “Cancer cell burden relative to control” value [8]?
**A.** reduced cancer cell burden

**Q.** What about the Permeability [9] of the same compound?
**A.** low permeability

**Q.** What about the “Concentration until which no reduction in metabolic activity” value [10] of the same compound?
**A.** 6 µM

**Q.** What about the “Sensitivity of OCI-AML3 cells” value [10] of the same compound?
**A.** high resistance

**Q.** What about the “Heartrate of zebrafish larvae relative to control” value [11] of the same compound?
**A.** No significant differences

**Q.** For `Nc1ncn([C@@H]2O[C@H](CO)[C@@H](O)[C@H]2O)c(=O)n1` [azacitidine], which Median overall survival [12] is on record?
**A.** 9.6 months
